In patent publication US20030187048A1, “Method for inhibiting skin lesion formation using histamine as the active ingredient” (priority 1991, published 2003):
Values joined by “and” are separate entries in the source; they are usually repeats but may differ in a detail not shown here. Equal entries are not always repeated. Where two headings read alike, the source gives them in different places.

Assays:
Allergic Conjunctivitis = system: Allergic Conjunctivitis
Method: (§1) The composition of the present invention includes initial preparation of a gel base by adding 0.8% CARBOPOL 940, which is a vinyl polymer, to distilled water. This mixture was allowed to stand for several hours until the polymer was wetted and a gel was formed. This mixture then was blended by means of a ordinary high speed mixer, such as a Lightning Labmaster II until a homogenous mixture is formed. At this point, a neutralizing and emulsifying agent such as an amino alcohol was added, forming an emulsion. […] This composition then was applied topically to various types of lesions, as subsequently described. […] Propylparaben or methylparaben may be used as a preservative. For “unidose” dispensers containing only two to three drops, no preservatives are used, as it is known that preservatives in ophthalmic solutions frequently cause undesirable side effects. The term semi-synthetic water soluble polymer as used herein includes hydroxy methylcellulose or carboxy methylcellulose. Carbopol is widely available in different viscosities.
Treatment consisted of topical ophthalmic application of both ophthalmic solution concentrations to their randomly assigned patients 2 times a day for 5 days. […] Each patient was clinically evaluated at 48 hours and 120 hours following the initiation of treatment for 2 parameters of tissue damage associated with Allergic Conjunctivitis. In addition, each patient was asked to evaluate subjectively 3 symptoms associated with Allergic Conjunctivitis 48 hours and 120 hours after treatment initiation. The percent reduction from the initial presentation of each of the parameters of tissue damage and the initial presentation for each additional symptom evaluated was calculated from 48 and 120 hour post treatment initiation data.
(§2) Patients were randomly assigned to one of two active levels being evaluated.
(§3) Clinical evaluation was performed at 48 hours and 120 hours post treatment initiation. Each patient was asked to subjectively evaluate 3 additional symptoms associated with Allergic Conjunctivitis by rating each symptom on a scale of 0 to 5 with 0 representing no evidence of symptom and 5 representing the greatest evidence of the symptom ever by the patient. clinical evaluation of tissue damage parameters was also done using the same scale of 0 to 5.
Patient compliance with the treatment regimen and the use of other medications was also evaluated.

[1] = system: aphthous stomatitis lesions (canker sores); details: for Mean percentage decay rates of lesions for each patient: standardized over 24 hour period
Method: Treatment consisted of topical application five times per day for a period of five days., with daily evaluation by the patient and clinician. Lesion decay rates (decrease in lesion size over time) of Groups C and E were grouped together and compared to Group B, the placebo Group.
Assignment of subjects within groups to the three concentrations was unknown to the investigator.
The decay rate was calculated by first computing the percentage decrease in size of the lesion over time and then standardizing the decay rate over an exact 24 hour period.

[2] = system: herpes zoster (shingles) lesions; details: for Burning score / Local pain score: […] IEP gel, scale 0 to 5
Method: The percent reduction in complete healing time as compared to a usual episode was evaluated comparing the two patients who received active gel concentrations to the two patients receiving placebo gel. […] Subjects were assigned randomly to one of two active ingredient levels being evaluated, 0.0% and 0.015% by weight of active ingredient.
Each patient was contacted weekly for his or her estimate of the symptomatic relief of 2 common symptoms associated with herpes zoster (shingles) as well as the patient's interpretation of total healing of the episode. In an attempt to quantify responses, patients were asked to rate each symptom on a scale of 0 to 5 with 0 representing no evidence of the symptom and 5 representing the worst or most prominent evidence of the symptom ever for the patient. Subject compliance with the study regimen and the use of other medications was also assessed.

[3] = system: Giant Papillary Conjunctivitis
Method: as §1
Treatment consisted of topical ophthalmic application of both ophthalmic solution concentrations to their randomly assigned patients 2 times a day for 5 days. […] Each patient was clinically evaluated at 48 hours and 120 hours following the initiation of treatment for 2 parameters of tissue damage associated with Giant Papillary Conjunctivitis. In addition, each patient was asked to evaluate subjectively 2 symptoms associated with Giant Papillary conjunctivitis 48 hours and 120 hours after treatment initiation. The percent reduction from the initial presentation of each of the parameters of tissue damage and the initial presentation for each additional symptom evaluated was calculated from 48 and 120 hour post treatment initiation data.
as §2
as §3, with “2” for “3”, “Giant Papillary” for “Allergic”, “Clinical” for “clinical”, “5. Patient compliance with the treatment regimen and the use of other medications was also evaluated.” for “5.”

[4] = 0.0067% ophth soln, 48 hrs, per patient
[5] = 0.0067% ophth soln, 120 hrs, per patient
[6] = 0.0067% ophth soln, scale 0 to 5, per patient
[7] = 0.0067% ophth soln, 48 hr, per patient
[8] = 0.0067% ophth soln, 120 hr, per patient

NCCc1c[nH]cn1 [IEP, 1H-imidazole-4-ethanamine,phosphate]
Edema, Percent Reduction from Pre-Treatment Value (Allergic Conjunctivitis; [4]): 66.67% and 50.0% and 100.0% | Itching, Percent Reduction from Pre-Treatment Value (Allergic Conjunctivitis; [4]): 100.0% (2×) and 50.0% | Level of Discomfort, Percent Reduction from Pre-Treatment Value (Allergic Conjunctivitis; [4]): 66.67% and 75.0% and 100.0% | Redness, Percent Reduction from Pre-Treatment Value (Allergic Conjunctivitis; [4]): 66.67% (2×) and 75.0% | Tearing, Percent Reduction from Pre-Treatment Value (Allergic Conjunctivitis; [4]): 100.0% and 50.0% | Edema, Percent Reduction from Pre-Treatment Value (Allergic Conjunctivitis; [5]): 100.0% | Itching, Percent Reduction from Pre-Treatment Value (Allergic Conjunctivitis; [5]): 100.0% | Level of Discomfort, Percent Reduction from Pre-Treatment Value (Allergic Conjunctivitis; [5]): 66.7% and 100.0% (2×) | Redness, Percent Reduction from Pre-Treatment Value (Allergic Conjunctivitis; [5]): 100.0% and 75.0% and 66.67% | Tearing, Percent Reduction from Pre-Treatment Value (Allergic Conjunctivitis; [5]): 100.0% (2×) and 75.0% | Conjunctival Injection or Redness, Value at 48 Hours (Allergic Conjunctivitis; [6]): 1 (2×) and 3 | Edema, Value at 120 Hours (Allergic Conjunctivitis; [6]): 0 | Itching, Value at 120 Hours (Allergic Conjunctivitis; [6]): 0 | Difference in percent reduction of tissue damage parameters and symptoms vs placebo ophthalmic solution (Allergic Conjunctivitis; 0.0067% ophthalmic solution): either significant (p<0.05) or highly significant (p<.O1) | Untoward effects (Allergic Conjunctivitis; in vivo): no untoward effects | Mean percentage decay rate of lesions, Conc. Mean ([1]; 0.0067% gel, 3 patients): 74.1% | Mean percentage decay rates of lesions for each patient ([1]; 0.0067% gel): 100.0% and 53.8% and 68.4% | Mean percentage decay rate of lesions, Conc. Mean ([1]; 0.0275% gel, 2 patients): 83.5% | Mean percentage decay rates of lesions for each patient ([1]; 0.0275% gel): 104.0% and 62.9% | Reducing lesion size over time vs placebo (analysis of variance) ([1]; Groups C and E (0.0067%, 0.0275%) combined, p<.O1): significantly more effective | Untoward events or significant complications ([1]; in vivo): No untoward events or significant complications | Burning score ([2]; week 2): 3 | Local pain score ([2]; week 2): 2 | Burning score ([2]; week 3): 0 | Local pain score ([2]; week 3): 0 | Burning score ([2]; week 4): 0 | Local pain score ([2]; week 4): 0 | Burning score ([2]; week 5): 0 | Local pain score ([2]; week 5): 0 | Difference in percent reduction in complete healing time vs placebo ([2]; […] gel, p<0.05): significant | Untoward reactions ([2]; topical gel […], three times a day): no untoward reactions | Exudation, Percent Reduction from Pre-Treatment Value [3, 7]: 50.0% and 75.0% and 100.0% | Itch/Burn, Percent Reduction from Pre-Treatment Value [3, 7]: 75.0% and 80.0% and 100.0% | Redness, Percent Reduction from Pre-Treatment Value [3, 7]: 50.0% and 66.67% and 100.0% | Contact Lens Tolerance, Percent Reduction from Pre-Treatment Value [3, 8]: 100.0% | Exudation, Percent Reduction from Pre-Treatment Value [3, 8]: 100.0% | Itch/Burn, Percent Reduction from Pre-Treatment Value [3, 8]: 100.0% | Redness, Percent Reduction from Pre-Treatment Value [3, 8]: 100.0% | Conjunctival Injection (redness), Value at 120 Hours [3, 6]: 0 | Contact Lens Tolerance, Value at 120 hours [3, 6]: 0 | Exudation, Value at 120 Hours [3, 6]: 0 | Itching and Burning, Value at 120 hours [3, 6]: 0 | Difference in percent reduction of tissue damage parameters and symptoms vs placebo ophthalmic solution ([3]; 0.0067% ophthalmic solution, except contact lens tolerance at 48 hours): either significant (p<0.05) or highly significant (p<.O1) | Decrease in size of the papilla ([3]; end of the 5 day treatment period, any of the patients): a significant decrease in size of the papilla was not noted | Untoward effects ([3]; in vivo): no untoward effects
